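All cell lines were grown in 96-well plates and treated with compound for 48 hours. At the GI50, growth is halved.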 The source made the active and inactive calls. Cut-off read from the data, not from the text of the source: active = GI50 up to about 1.1 µM and inactive = higher.
Tests used:
Test in all cases: NCI-60 cell line screen, 48 h
[1] = tested on: MCF7
[2] = tested on: K562
[3] = tested on: UACC-257
[4] = tested on: UACC-62
[5] = tested on: HT-29
[6] = tested on: MDA-MB-435
[7] = tested on: COLO 205
[8] = tested on: Malme-3M
[9] = tested on: KM12
[10] = tested on: ACHN
[11] = tested on: SN12C
[12] = tested on: TK-10
[13] = tested on: NCI/ADR-RES
[14] = tested on: BT-549
[15] = tested on: HCC 2998
[16] = tested on: M14
[17] = tested on: UO-31
[18] = tested on: A498
[19] = tested on: LOX IMVI
[20] = tested on: NCI-H226

| SMILES | GI50 [1] | GI50 [2] | GI50 [3] | GI50 [4] | GI50 [5] | GI50 [6] | GI50 [7] | GI50 [8] | GI50 [9] | GI50 [10] | GI50 [11] | GI50 [12] | GI50 [13] | GI50 [14] | GI50 [15] | GI50 [16] | GI50 [17] | GI50 [18] | GI50 [19] | GI50 [20] |
| --- | --- | --- | --- | --- | --- | --- | --- | --- | --- | --- | --- | --- | --- | --- | --- | --- | --- | --- | --- | --- |
| Oc1ccccc1/C=N/Nc1nc(N/N=C/c2ccccc2O)nc(N/N=C/c2ccccc2O)n1 | 8.63 µM (inactive) | > 100 µM (inactive) | > 100 µM (inactive) | 51.1 µM (inactive) | 69.7 µM (inactive) | > 100 µM (inactive) | > 100 µM (inactive) | > 100 µM (inactive) | > 100 µM (inactive) | 69.7 µM (inactive) | > 100 µM (inactive) | > 100 µM (inactive) | 24.5 µM (inactive) | 85.3 µM (inactive) | > 100 µM (inactive) | > 100 µM (inactive) | > 100 µM (inactive) | > 100 µM (inactive) | > 100 µM (inactive) | 58.7 µM (inactive) |
| CC(=O)OCC1OC(O[C@@H]2C[C@H]3C(C)(C)[C@H](OC(C)=O)CC[C@]3(C)[C@H]3CC[C@@]45C[C@H](O)C[C@H](C)[C@@H]4CC=C5[C@@]32C)C(O)C(O)C1O (stereo not given in full) | 4.04 µM (inactive) | 2.61 µM (inactive) | 4.72 µM (inactive) | 4.12 µM (inactive) | 1.91 µM (inactive) | 3.27 µM (inactive) | 1.82 µM (inactive) | 6.92 µM (inactive) | 2.38 µM (inactive) | 6.05 µM (inactive) | 4.08 µM (inactive) | 8.93 µM (inactive) | 16 µM (inactive) | 5.3 µM (inactive) | 2.03 µM (inactive) | 4.06 µM (inactive) | 13.1 µM (inactive) | 6.67 µM (inactive) | 1.98 µM (inactive) | 4.37 µM (inactive) |
| Cc1ccc(O)c(-c2csc(NCN3CCN(CNc4nc(-c5cc(C)ccc5O)cs4)CC3)n2)c1 | > 100 µM (inactive) | > 100 µM (inactive) | > 100 µM (inactive) | > 100 µM (inactive) | > 100 µM (inactive) | > 100 µM (inactive) | > 100 µM (inactive) | > 100 µM (inactive) | > 100 µM (inactive) | > 100 µM (inactive) | > 100 µM (inactive) | > 100 µM (inactive) | > 100 µM (inactive) | > 100 µM (inactive) | > 100 µM (inactive) | > 100 µM (inactive) | > 100 µM (inactive) | > 100 µM (inactive) | > 100 µM (inactive) | > 100 µM (inactive) |
| COc1ccc(C(C)NNC(=O)c2ccncc2)c(OC)c1 (stereo not given) | > 100 µM (inactive) | 93.1 µM (inactive) | > 100 µM (inactive) | > 100 µM (inactive) | > 100 µM (inactive) | > 100 µM (inactive) | > 100 µM (inactive) | > 100 µM (inactive) | > 100 µM (inactive) | > 100 µM (inactive) | > 100 µM (inactive) | > 100 µM (inactive) | > 100 µM (inactive) | > 100 µM (inactive) | > 100 µM (inactive) | > 100 µM (inactive) | > 100 µM (inactive) | > 100 µM (inactive) | > 100 µM (inactive) | > 100 µM (inactive) |
| C1=CC2C=CC(C=C1)P2c1ccccc1 (stereo not given) | > 100 µM (inactive) | > 100 µM (inactive) | > 100 µM (inactive) | > 100 µM (inactive) | > 100 µM (inactive) | > 100 µM (inactive) | > 100 µM (inactive) | > 100 µM (inactive) | > 100 µM (inactive) | > 100 µM (inactive) | > 100 µM (inactive) | > 100 µM (inactive) | > 100 µM (inactive) | > 100 µM (inactive) | 0.0175 µM (active) | > 100 µM (inactive) | > 100 µM (inactive) | > 100 µM (inactive) | > 100 µM (inactive) | > 100 µM (inactive) |
| CC(=O)Oc1ccn2nc(C)c(Br)c2c1Br | 17.8 µM (inactive) | 24.5 µM (inactive) | 16.7 µM (inactive) | 17.7 µM (inactive) | 20.7 µM (inactive) | 17.9 µM (inactive) | 19.4 µM (inactive) | 22.4 µM (inactive) | 33.7 µM (inactive) | 17.6 µM (inactive) | 27.7 µM (inactive) | 45 µM (inactive) | 47.6 µM (inactive) | 26 µM (inactive) | 20.7 µM (inactive) | 18.9 µM (inactive) | 4.6 µM (inactive) | 25.1 µM (inactive) | 18.4 µM (inactive) | > 43.9 µM (inactive) |
| O/N=C(/C(Cl)=C(Cl)Cl)C(Cl)Cl | 25.6 µM (inactive) | 13.3 µM (inactive) | 19.6 µM (inactive) | 24.7 µM (inactive) | 16.7 µM (inactive) | 18.2 µM (inactive) | 20.7 µM (inactive) | 28.8 µM (inactive) | 22.4 µM (inactive) | 17.9 µM (inactive) | 18.1 µM (inactive) | 18.3 µM (inactive) | 32.2 µM (inactive) | 21.3 µM (inactive) | 31.4 µM (inactive) | 20.2 µM (inactive) | 20.9 µM (inactive) | > 100 µM (inactive) | 17.2 µM (inactive) | 31 µM (inactive) |
| C[n+]1cccc2ccc3cccnc3c21 | 38.5 µM (inactive) | > 100 µM (inactive) | 41.9 µM (inactive) | 55.3 µM (inactive) | 28.2 µM (inactive) | 69.2 µM (inactive) | 17.7 µM (inactive) | 16.1 µM (inactive) | 9.08 µM (inactive) | 20.9 µM (inactive) | 35.1 µM (inactive) | 27.5 µM (inactive) | > 100 µM (inactive) | 31.7 µM (inactive) | 49.2 µM (inactive) | 44.7 µM (inactive) | 21.8 µM (inactive) | 32.5 µM (inactive) | 29 µM (inactive) | 20.6 µM (inactive) |
| CCCN(C(=O)c1ccccc1)C(C#N)c1ccc(C(C#N)N(CCC)C(=O)c2ccccc2)cc1 (stereo not given) | > 100 µM (inactive) | > 100 µM (inactive) | > 100 µM (inactive) | 45 µM (inactive) | 21.6 µM (inactive) | > 100 µM (inactive) | > 100 µM (inactive) | > 100 µM (inactive) | > 100 µM (inactive) | 84.1 µM (inactive) | > 100 µM (inactive) | > 100 µM (inactive) | 38.5 µM (inactive) | 48.4 µM (inactive) | > 100 µM (inactive) | > 100 µM (inactive) | > 100 µM (inactive) | 37.1 µM (inactive) | > 100 µM (inactive) | 20 µM (inactive) |
| Cn1c(=O)[nH]n(-c2ccc3ccccc3c2)c1=O | > 100 µM (inactive) | > 100 µM (inactive) | > 100 µM (inactive) | > 100 µM (inactive) | > 100 µM (inactive) | > 100 µM (inactive) | > 100 µM (inactive) | > 100 µM (inactive) | > 100 µM (inactive) | > 100 µM (inactive) | > 100 µM (inactive) | > 100 µM (inactive) | > 100 µM (inactive) | > 100 µM (inactive) | > 100 µM (inactive) | > 100 µM (inactive) | > 100 µM (inactive) | > 100 µM (inactive) | > 100 µM (inactive) | > 100 µM (inactive) |
| CCO/N=C\c1ccc2oc(-c3ccccc3)cc(=O)c2c1 | 0.31 µM (active) | 0.034 µM (active) | 18.3 µM (inactive) | 0.194 µM (active) | 0.0521 µM (active) | 0.0133 µM (active) | 0.0506 µM (active) | 0.184 µM (active) | 0.0522 µM (active) | 1.51 µM (inactive) | 0.303 µM (active) | 2.26 µM (inactive) | 0.0501 µM (active) | 1.06 µM (active) | 0.31 µM (active) | 0.172 µM (active) | 0.394 µM (active) | 0.312 µM (active) | 1.07 µM (active) | 0.421 µM (active) |
| CCOC(=O)CCC(NC(=O)c1ccc(Nc2nc3cc(C(F)(F)F)ccc3nc2-c2ccccc2)cc1)C(=O)OCC (stereo not given) | 20.6 µM (inactive) | 23.4 µM (inactive) | 22.8 µM (inactive) | 13.3 µM (inactive) | 25.8 µM (inactive) | 28.8 µM (inactive) | 22.4 µM (inactive) | 28.2 µM (inactive) | 17.7 µM (inactive) | 21 µM (inactive) | 19.3 µM (inactive) | 19.6 µM (inactive) | 19.5 µM (inactive) | 25.2 µM (inactive) | 24.3 µM (inactive) | > 100 µM (inactive) | 14.6 µM (inactive) | 5.35 µM (inactive) | 19.8 µM (inactive) | 20.7 µM (inactive) |
| CN(C)CCCn1nc(N)c2nc3cc(Cl)ccc3nc21 | 33.3 µM (inactive) | > 76.2 µM (inactive) | 24.5 µM (inactive) | 20.7 µM (inactive) | 27.9 µM (inactive) | 34 µM (inactive) | 33 µM (inactive) | 41.1 µM (inactive) | 43.9 µM (inactive) | 39.7 µM (inactive) | 59.8 µM (inactive) | 54.7 µM (inactive) | 71.8 µM (inactive) | > 100 µM (inactive) | 35.7 µM (inactive) | 20.7 µM (inactive) | 28.6 µM (inactive) | 52.1 µM (inactive) | 34.8 µM (inactive) | 45.2 µM (inactive) |
| COc1ccc2c(c1)/C(=C\c1c(Cl)n(-c3ccccc3)c3ccccc13)C(=O)N2 | 3.45 µM (inactive) | 2.19 µM (inactive) | 8.97 µM (inactive) | 5.89 µM (inactive) | 3.48 µM (inactive) | 1.64 µM (inactive) | 3.61 µM (inactive) | 2.83 µM (inactive) | 3.18 µM (inactive) | 9.18 µM (inactive) | 13.6 µM (inactive) | 15.5 µM (inactive) | 2.49 µM (inactive) | 10.7 µM (inactive) | 4.89 µM (inactive) | 3.2 µM (inactive) | 1.53 µM (inactive) | 5.27 µM (inactive) | 6.44 µM (inactive) | 2.28 µM (inactive) |

— ChEMBL document CHEMBL1201862, “PubChem BioAssay data set” (2004)
